“And” between values parts separate entries of the source, which are not always exact repeats. Equal entries are not always repeated. Where two headings read alike, the source gives them in different places. Marks after values point to notes of the source that are not given here.
Legend:
[1] = Plasma protein binding via rapid equilibrium dialysis (RED), 10% plasma; format: in vitro ADME, human; settings: human, 10% pooled plasma (diluted 1:10), pH 7.4, RED, 10% plasma corrected for dilution; for fraction unbound at 6 h: 6 h dialysis; for fraction unbound at 24 h: presaturation of device and 24 h dialysis
Experimental: (§1) Pooled human plasma (n = 3–4 donors) was obtained by centrifugation of blood (collected by the Australian Red Cross Blood Service, Melbourne, Australia or the Volunteer Blood Donor Registry, Clinical Translation Centre, Walter & Eliza Hall Institute of Medical Research, Parkville, Australia), or sourcing pooled plasma directly from commercial sources (Innovative Research Inc, MI) and stored frozen at − 80 °C.
(§2) Plasma was diluted 1:10 with pH 7.4 phosphate buffer (prepared by mixing 0.1 M sodium dihydrogen phosphate and 0.1 M disodium hydrogen phosphate (both containing 0.04 M NaCl) to pH 7.4) and spiked with compound to achieve a total measured concentration of ~ 1000–3000 ng/mL. Diluted plasma was vortex mixed briefly and aliquots (n = 3–4) were transferred to RED (Thermo Fisher Scientific, Waltham, MA) units that were placed at 37 °C under ambient atmosphere on a plate shaker. […] At the end of the dialysis period, samples were removed from both the donor and dialysate chambers of the RED units. […] Fraction unbound values were calculated for each individual RED unit and the mean and SD calculated for n = 3–4 replicates.
(§3) Briefly, the RED device was exposed for two 30 min periods and one overnight period to fresh solutions of compound prepared in pH 7.4 buffer at approximately 10% of the total dialysis concentration. Following the preincubations, solutions were removed from the RED device and discarded. […] Samples were removed and analysed as described above.
(§4) For binding assessments using 10% plasma, the unbound fraction (fu) in neat plasma was calculated using the average values for Ctotal and Cunbound and Eq.

[2] = Blood to plasma partitioning; format: in vitro ADME, human; settings: 37 °C; for blood plasma ratio at 1000 ng/mL: human, whole blood, pH 7.4, human whole blood, read-out: B/P (whole blood to plasma partitioning ratio); for B/P (whole blood to plasma partitioning ratio): human whole blood
Experimental: Human whole blood was collected and supplied by the Volunteer Blood Donor Registry (Clinical Translation Centre, Walter & Eliza Hall Institute of Medical Research, Parkville, Australia) and used on the day of collection. The haematocrit (Hct) was determined by centrifugation (13,000×g for 3 min using Clemets® Microhaematocrit centrifuge and Safecap® Plain Self-sealing Mylar wrapped capillary tubes) to ensure it was between 0.40 and 0.48. An aliquot was centrifuged (Heraeus, Multifuge 3 S-R; 4500×g) for 10 min to obtain plasma required for matrix matching purposes as described below.
Two aliquots of the spiked whole blood were transferred to fresh microcentrifuge tubes and maintained at 37 °C/5% CO2 in a humidified incubator. The pH was confirmed to be 7.4 ± 0.1 at the start and end of the incubation. At each time point (30 min and 4 h), one whole blood tube was removed from the incubator and mixed by gentle inversion, after which four replicate blood samples were taken and matrix matched with an equal volume of blank plasma. The remainder of the blood sample was centrifuged (Eppendorf, Mini Spin plus; 6700×g) for 2 min for the collection of 4 replicate plasma samples which were similarly matrix matched with an equal volume of blank whole blood. The 1:1 mixtures of blood/plasma were mixed, snap frozen in dry ice and stored at − 80 °C until analysis by LC–MS (Additional file 1: Table S2) against calibration standards prepared in the same mixed matrix. Any further distribution of compound into RBCs at this stage was irrelevant as the cells were lysed during the sample preparation and the total concentration in the mixed matrix was measured for both the calibration standards and samples.
The apparent whole blood-to-plasma partitioning ratio (B/P) was calculated as the ratio of the average concentration in the blood sample to that in the plasma fraction of the same whole blood sample. A standard deviation (SD) for each B/P value was calculated using the propagation of errors approach as described previously.

[3] = system: human plasma; settings: methods UF, ED, EP or not described per compound, ref [6]–[22] of Additional file 1; cited from earlier work
[4] = system: human plasma; experiment: Plasma protein binding via ultracentrifugation (UC); format: in vitro ADME; settings: ultracentrifugation, neat plasma
Summary of the method: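 Unbound fraction from ultracentrifugation of spiked pooled donor plasma, supernate pH checked and sampled for Cunbound. Ctotal and degradation taken from 37 °C control tubes at start and end; all samples mixed 1:1 with blank plasma or pH 7.4 buffer before analysis on shared calibration.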

[5] = system: human plasma; experiment: Plasma protein binding via rapid equilibrium dialysis (RED), 10% plasma; format: in vitro ADME; settings: RED, 10% plasma corrected for dilution
Experimental: as §1, §2, §3, §4

[6] = system: Caco-2 cell monolayers; experiment: Bidirectional permeability across Caco-2 cell monolayers; settings: for efflux ratio: mean B–A/A–B Papp
Summary of the method: (§5)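 Donor and acceptor concentrations measured by LC–MS to give Papp, mass balance and efflux ratio (mean B–A over A–B Papp). Media were pH 7.4 HEPES-buffered HBSS or human plasma on both sides; for plasma, Papp used the donor fraction unbound. Donor contained 0.1% v/v DMSO.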

[7] = system: Caco-2 cell monolayers; settings: cited from earlier work; for Literature ER: Caco-2, ref [33], [35] of Additional file 1; for Literature Papp: Caco-2 A-B, ref [33]–[35] of Additional file 1; for A–B Papp / B–A Papp: corrected for fu
[8] = Bidirectional permeability across Caco-2 cell monolayers; settings: human; for Papp B→A / efflux ratio: Caco-2; for Papp A→B: Caco-2, A–B Papp, matrix: human plasma, corrected for fu
Summary of the method: as §5

[9] = system: human liver microsomes; experiment: Binding to human liver microsomes via ultracentrifugation; format: in vitro ADME; settings: 0.4 mg/mL protein
Summary of the method: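 Unbound fraction by ultracentrifugation: Cunbound measured in protein-free supernate, Ctotal from spiked tubes held at 37 °C, sampled at start and end to check degradation. Matrix was 0.4 mg/mL human liver microsomal protein, 0.1 M phosphate pH 7.4; matrix-matched analysis against one calibration curve.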

[10] = presaturation of device and 24 h dialysis
[11] = matrix: human plasma, corrected for fu

SMILES: CCCCN(CCCC)CC(O)c1cc(Cl)cc2c1-c1ccc(Cl)cc1/C2=C/c1ccc(Cl)cc1 (centres unmarked) [Lumefantrine]
- fraction unbound at 6 h [1]: < 0.0001
- fraction unbound at 24 h [1]: < 0.0001
- blood plasma ratio at 1000 ng/mL [2]: 0.48 ± 0.09
- Literature fu [3]: 0.003

SMILES: COc1cc(N[C@H](C)CCCN)c2nccc(C)c2c1Oc1ccc(Cl)c(Cl)c1 [NPC1161B]
- Fraction unbound, human plasma [4]: 0.046 (0.0090)
- Fraction unbound, human plasma ([5]; 6 h dialysis): < 0.0003
- Fraction unbound, human plasma [5, 10]: 0.00074 ± 0.00016^c
- B/P (whole blood to plasma partitioning ratio) [2]: 1.09 ± 0.07
- A–B Papp [6, 11]: > 300 10^−6 cm/s
- B–A Papp [6, 11]: > 300 10^−6 cm/s

SMILES: COc1ccc2nc3cc(Cl)ccc3c(Nc3cc(CN4CCCC4)c(O)c(CN4CCCC4)c3)c2n1 [Pyronaridine]
- fraction unbound at 6 h [1]: 0.09 ± 0.012
- blood plasma ratio at 1000 ng/mL [2]: 9 ± 0.83
- Literature ER [7]: 1.8
- Literature Papp [7]: 10.3 ± 0.3 10-6 cm/sec
- Papp B→A [8]: 410 ± 30 nm/s
- efflux ratio [8]: 2.6
- Papp A→B [8]: 160 ± 22 nm/s
- Literature fu [3]: < 0.35

SMILES: CCc1nc(N)nc(N)c1OCCCOc1ccccc1CCC(=O)O.Cl [P218]
- Fraction unbound, human plasma [4]: 0.13 ± 0.013
- B/P (whole blood to plasma partitioning ratio) [2]: 0.56 ± 0.03
- Fraction unbound, HLM [9]: 0.88 ± 0.041
- B–A Papp ([6]; matrix: pH 7.4 buffer): 15 ± 1.7 10^−6 cm/s
- efflux ratio ([6]; matrix: pH 7.4 buffer): 21

SMILES: CC(C)(C)NCc1cc(Nc2ccnc3cc(Cl)ccc23)c2c(c1O)CCCC2 [Naphthoquine]
- Fraction unbound, human plasma [4]: 0.030 (0.0020)
- Fraction unbound, human plasma ([5]; 6 h dialysis): 0.019 (0.0010)
- Fraction unbound, human plasma [5, 10]: 0.018 ± 0.0010^c
- B/P (whole blood to plasma partitioning ratio) [2]: 1.14 ± 0.10
- Literature ER [7]: 0.8
- Literature Papp [7]: 27.3 ± 0.6 10-6 cm/sec
- A–B Papp ([7]; matrix: human plasma): 230 ± 32 10^−6 cm/s
- B–A Papp ([7]; matrix: human plasma): 180 ± 10 10^−6 cm/s
- efflux ratio ([7]; matrix: human plasma): 0.8 and 0.78
- Fraction unbound, HLM [9]: 0.21 ± 0.015

SMILES: O=C1C(O)=C([C@H]2CC[C@H](c3ccc(Cl)cc3)CC2)C(=O)c2ccccc21 [Atovaquone]
- fraction unbound at 24 h [1]: < 0.0001
- A–B Papp ([7]; matrix: human plasma): > 300 10^−6 cm/s
- B–A Papp ([7]; matrix: human plasma): > 300 10^−6 cm/s
- Literature fu [3]: 0.001

SMILES: Cc1nc(Nc2ncc(N3CCN(C)[C@H](C)C3)c(Nc3cc(C)n(C)n3)n2)cc(C2CC2)c1F [MMV253]
- fraction unbound at 24 h [1]: 0.017 ± 0.0002
- blood plasma ratio at 1000 ng/mL [2]: 1 ± 0.05
- Papp B→A [8]: 1500 ± 230 nm/s
- efflux ratio [8]: 1
- Papp A→B [8]: 1500 ± 290 nm/s

SMILES: CS(=O)(=O)O.FC1CCN(CCOc2ccc(C3CCC4(CC3)OOC3(OO4)C4CC5CC(C4)CC3C5)cc2)CC1 (centres unmarked) [TDD-E209]
- Fraction unbound, human plasma [4]: 0.094 (0.011)
- Fraction unbound, human plasma ([5]; 6 h dialysis): < 0.0001
- Fraction unbound, human plasma [5, 10]: < 0.0001^c
- B/P (whole blood to plasma partitioning ratio) [2]: 0.51 ± 0.08
- Fraction unbound, HLM [9]: 0.0003 ± 0.000010
- A–B Papp [6, 11]: > 300 10^−6 cm/s
- B–A Papp [6, 11]: > 300 10^−6 cm/s

SMILES: CN(C)C[c-]1cccc1CNc1ccnc2cc(Cl)ccc12.[Fe+2].c1cc[cH-]c1 (centres unmarked) [Ferroquine]
- Fraction unbound, human plasma [4]: 0.070 (0.0080)
- Fraction unbound, human plasma [5, 10]: 0.041 ± 0.0010^c
- B/P (whole blood to plasma partitioning ratio) [2]: 1.6 ± 0.15
- Fraction unbound, HLM [9]: 0.27 ± 0.032
- A–B Papp [6, 11]: 32 ± 6.8 10^−6 cm/s
- B–A Papp [6, 11]: 24 ± 4.1 10^−6 cm/s
- efflux ratio ([6]; matrix: human plasma): 0.8

From article PMC6941357, “An in vitro toolbox to accelerate anti-malarial drug discovery and development” (Malaria Journal, 2020)
